Test system: human CD4+ T cells
Assay: Human peripheral blood CD4+ T cell cultures and cytokine analysis (Th17 polarization)
Type: cell-based
Conditions: secreted IL-17A, 5 days Th17 polarization
Protocol: Human biological samples were cryopreserved human CD4+ T cells purchased from AllCells, LLC and Stemcell Technologies, Inc. The CD4+ T cells were differentiated to the Th17 subtype by culturing for 5 days in tissue culture plates coated with anti-CD3 antibody (2 μg/mL) in Iscove's modified Dulbecco's medium (IMDM) containing 10% HI-FBS, 55 μM 2-mercaptoethanol and soluble anti-CD28 (3 μg/mL) in the presence of a Th17 skewing cocktail, including IL-1β (10 ng/mL), IL-6 (30 ng/mL), TGFβ (0.5 ng/mL), IL-21 (10 ng/mL), IL-23 (10 ng/mL), anti-IFNγ (10 μg/mL) and anti-IL-4 (10 μg/mL). To examine compound effects on Th17 polarization, freshly thawed CD4+ cells in IMDM supplemented with all Th17 polarization cocktail constituents (above) were seeded at low cell density (20,000 cells/well) directly into anti-CD3 coated round bottom 96-well plates already containing serially diluted compounds. Cells were incubated undisturbed for 5 days at 37° C. Immediately following culture, supernatant was analyzed for secreted IL-17A and IL-22 protein by MSD electrochemiluminescent cytokine assays (Mesoscale Discovery) and ELISA (Quantikine assay, R&D Systems), respectively. Compound treatment(s) were performed in triplicate. Results are presented as the mean±SD or as mean percent inhibition (±SD) relative to the response to stimulus alone.

IC50 (Homo sapiens, CD4+ T, 120 h, read-out: IL17A pIC50 (converted)): 28.8 nM
SMILES: Cc1ncc(C(=O)Nc2cc(Cl)cc(CN3CCN(C(=O)CC4CC4)[C@@H](C)C3)c2C)cc1F [Example 80, (S)—N-(5-chloro-3-((4-(2-cyclopropylacetyl)-3-methylpiperazin-1-yl)methyl)-2-methylphenyl)-5-fluoro-6-methylnicotinamide]
Inhibition Activity (ASSYM MAX): 94

Source: patent US9902735B2, “Heteroaryl substituted compounds as RORγ inhibitors” (GlaxoSmithKline Intellectual Property Developement Limited, priority 2014, dated 2018)
